From patent publication US20260345458A1, “Pharmaceutical, Dermatological or Cosmetic Compounds and Compositions for Reducing Melanin Synthesis, Stimulating Type I Collagen Production, Skin Depigmentation and/or Promoting a Skin Anti-Aging Effect in an Individual or Animal, Uses and Methods” (Chemyunion Ltda, priority 2022, published 2026)
Where a SMILES comes first, the peptide text is derived from it. The star is where a group is joined. Palmitoyl = CCCCCCCCCCCCCCCC(=O)*

Legend:
rats = details: cited from earlier work
skin = details: cited from earlier work; for ochronosis: skin becomes more pigmented than at the beginning of treatment
[1] = test system: type I collagen in human skin fragments; assay: Collagen synthesis stimulation in human skin fragments (ex vivo explants, immunofluorescence); format: cell-based; details: 72 h, ex vivo human skin explants (n=5), vs placebo, **p<0.01 (FIG. 3)
Text: (§1) FIG. 3. Semi-quantification of type I collagen levels. Data obtained by recording images of histological sections of human skin fragments previously treated with a formulation without active ingredient (Placebo) and treated with the same formulation containing the peptide SEQ ID No. 1 (Pal-Gln-His-Trp-Val-OH) (at 50 ppm or 100 ppm). **p<0.01 compared to the placebo group.
FIG. 4. Representative images of the effect of peptide SEQ ID No. 1 (Pal-Gln-His-Trp-Val-OH) on the synthesis of type I collagen in ex vivo skin fragments-immunofluorescence (400× magnification).
Example 2: Evaluation of Collagen Synthesis Stimulation in Human Skin Fragments
Skin explants (n=5) obtained from a surgical procedure performed by the ophthalmologic plastic surgery clinic were treated for 72 h with a formulation containing the peptide SEQ ID No. 1 (Pal-Gln-His-Trp-Val-OH) (at 50 ppm or 100 ppm) and with the same formulation without the addition of the peptide (placebo). After incubation with the test products as described above, the skin fragments were fixed in 4% paraformaldehyde (pH 7.4) for 24 h. […] The skin sections were then subjected to the specific labeling process for type I collagen for subsequent immunofluorescence analysis; the records were obtained using a fluorescence optical microscope coupled to a photographic camera.

[2] = test system: melanin synthesis in human skin fragments; assay: Inhibition of melanin synthesis in human skin fragments (ex vivo explants, Fontana Masson staining); format: cell-based; details: 50 ppm; 72 h; ex vivo human skin explants (n=5); vs placebo; **p<0.01 (FIG. 1)
Text: as §1, with “1:” for “3.”, “melanin pigment” for “type I collagen”
FIG. 2: Representative images of the effect of peptide SEQ ID No. 1 (Pal-Gln-His-Trp-Val-OH) on melanin synthesis in ex vivo skin fragments-Fontana Masson staining (400× magnification).
Example 1: Evaluation of Inhibition of Melanin Synthesis in Human Skin Fragments
Skin explants (n=5), obtained from a surgical procedure performed by an ophthalmological plastic surgery clinic, were treated for 72 h with a formulation containing the peptide SEQ ID No. 1 (Pal-Gln-His-Trp-Val-OH), (at 50 ppm or 100 ppm) and with the same formulation without the addition of the peptide (placebo).
After incubation with the test products as described above, the skin fragments were fixed in 4% paraformaldehyde (pH 7.4) for 24 hours. […]
Subsequently, the slides were analyzed and recorded using an optical microscope coupled to a camera.

melanin synthesis = details: as reported in prior patent documents; cited from earlier work

Molecule: O=c1cc(CO)occ1O [Kojic acid]
- promotion of cancer (rats): has been found to promote the development of liver and thyroid cancer in rats

Molecule: Oc1ccc(O)cc1 [hydroquinone]
- ochronosis (skin): can cause ochronosis
- effect on extracellular matrix fibers, adrenal glands, thyroid physiology and skin firmness (skin; topical application, studies suggest): can disrupt the fibers of the extracellular matrix (especially collagen and elastin), leading to changes in the adrenal glands and thyroid physiology, as well as loss of skin firmness

Molecule: CCCCCCCCCCCCCCCC(=O)N[C@@H](CCC(N)=O)C(=O)N[C@@H](Cc1c[nH]cn1)C(=O)N[C@@H](Cc1c[nH]c2ccccc12)C(=O)N[C@H](C(=O)O)C(C)C [SEQ ID No. 1, Pal-Gln-His-Trp-Val-OH] (Palmitoyl-QHWV-OH)
- stimulation of collagen I production compared to the placebo group ([1]; 50 ppm): 63%
- increase in protein (type I collagen) synthesis compared to the placebo group ([1]; 100 ppm): 71%
- reduction of melanin production compared to the placebo group [2]: 66%

Molecule: CCCCCCCCCCCCCCCC(=O)N[C@@H](Cc1ccc(O)cc1)C(=O)N[C@@H](Cc1ccc(O)cc1)C(=O)N[C@@H](CCSC)C(N)=O [Pal-TyrTyrMet-NH2] (Palmitoyl-Tyr-Tyr-Met-NH2)
- activity on melanin synthesis / skin lightening (melanin synthesis): stimulating melanin synthesis

Molecule: Caffeoyl-GlnHisGlyVal-OH
- activity on melanin synthesis / skin lightening (melanin synthesis): has skin lightening activity due to its anti-inflammatory activity

Molecule: OC[C@H]1O[C@@H](Oc2ccc(O)cc2)[C@H](O)[C@@H](O)[C@@H]1O [arbutin]
- ochronosis (skin): can cause ochronosis
